≈ marks a conversion by molar mass, not a printed value. Counter-ions that a name gives are not always drawn. Like-named read-outs stand apart in the source and are kept apart here.
Assays:
[1] = blood levels upon intramuscular administration to mice; assay type: in vivo; details: mouse, im, 20 mg/kg
Experimental: Table 2, below, gives the Protective Dose50 (PD50) in mice for a number of the compounds of Formula I against selected microorganisms. Table 3 gives blood levels of various compounds of Formula I upon intramuscular administration of the test compounds to mice at a dosage of 20 mg/kg.

[2] = test system: Cephalothinresistant E. coli (3 strains) and Kl. pneumoniae (2 strains); assay: MIC, two-fold serial agar dilution, group (G-)-Ib; assay type: cell-based; details: 5 strains; for MIC: Escherichia coli, read-out: Geometric Mean of MIC, (G-)-Ib, Mueller-Hinton agar; for Geometric Mean of MIC, (G-)-Ib: Mueller-Hinton agar
Experimental: (§1) In the primary evaluation of the compounds of this invention, the Minimum Inhibitory Concentrations (MIC's) of the compounds were determined by the two-fold serial agar dilution method in Mueller-Hinton agar against 32 strains of test organisms in six groups.
(G-)Ib: Cephalothinresistant E. coli (3 strains) and Kl. pneumoniae (2

[3] = test system: Ps. aeruginosa (7 strains); assay: MIC, two-fold serial agar dilution, group (G-)-III; assay type: cell-based; details: Mueller-Hinton agar; for MIC: Pseudomonas aeruginosa, read-out: Geometric Mean of MIC, (G-)-III
Experimental: as §1
(G-)III: Ps. aeruginosa (7 strains)

[4] = test system: Penicillinsensitive S. aureus (5 strains); assay: MIC, two-fold serial agar dilution, group (G+)-Ia; assay type: cell-based; details: for MIC: Staphylococcus aureus, read-out: Geometric Mean of MIC, (G+)-Ia
Experimental: as §1
(G+)Ia: Penicillinsensitive S. aureus (5 strains)

[5] = test system: Cephalothinsensitive E. coli (2 strains), Kl. pneumoniae (1 strain) and Pr. mirabilis (2 strains); assay: MIC, two-fold serial agar dilution, group (G-)-Ia; assay type: cell-based; details: Mueller-Hinton agar, 5 strains; for MIC: read-out: Geometric Mean of MIC, (G-)-Ia
Experimental: as §1
(G+)Ia: Cephalothinsensitive E. coli (2 strains), Kl. pneumoniae (1
strain) and Pr. mirabilis (2 strains)

[6] = test system: M. morganii (1 strain), Ent. cloacae (2 strains) and Ser. marcescens (2 strains); assay: MIC, two-fold serial agar dilution, group (G-)-II; assay type: cell-based; details: Mueller-Hinton agar, 5 strains; for MIC: read-out: Geometric Mean of MIC, (G-)-II
Experimental: as §1
(G-)II: M. morganii (1 strain), Ent. cloacae (2 strains) and Ser.

[7] = test system: Penicillinresistant S. aureus (5 strains); assay: MIC, two-fold serial agar dilution, group (G+)-Ib; assay type: cell-based; details: Mueller-Hinton agar, 5 strains; for MIC: Staphylococcus aureus, read-out: Geometric Mean of MIC, (G+)-Ib
Experimental: as §1
(G+)Ib: Penicillinresistant S. aureus (5 strains)

| Structure (SMILES) | MIC [2] [µg/mL] | MIC [3] [µg/mL] | MIC [5] [µg/mL] | MIC [6] [µg/mL] | MIC [7] [µg/mL] | MIC ([4]; Mueller-Hinton agar, 5 strains) [µg/mL] | further results |
| --- | --- | --- | --- | --- | --- | --- | --- |
| CON=C(C(=O)NC1C(=O)N2C(C(=O)[O-])=C(C=CC[N+](C)(C)C)CS[C@H]12)c1nsc(N)n1 (stereo partly drawn) [Compound I-1D, 7-[2-(5-Amino-1,2,4-thiadiazol-3-yl)-2-methoxyiminoacetamido]-3-(3-trimethylammonio-1-propen-1-yl)-3-cephem-4-carboxylate] |  |  |  |  |  |  | AUC [1]: 11000 ng·h/mL; Cmax [1]: 20000 ng/mL; half-life [1]: 19 min |
| CON=C(C(=O)NC1C(=O)N2C(C(=O)[O-])=C(/C=C/C[n+]3cccc(N)c3)CSC12)c1nsc(N)n1 (stereo not drawn) [Compound I-1E, 7-[2-(5-Amino-1,2,4-thiadiazol-3-yl)-2-methoxyiminoacetamido]-3-[3-(3-aminopyridinio)-1-propen-1-yl]-3-cephem-4-carboxylate] | 0.029 (≈ 0.0561 µM) | 1.4 (≈ 2.71 µM) | 0.0094 (≈ 0.0182 µM) | 0.1 (≈ 0.194 µM) | 0.4 (≈ 0.774 µM) |  | MIC [4]: 0.2 µg/mL (≈ 0.387 µM) |
| CON=C(C(=O)NC1C(=O)N2C(C(=O)[O-])=C(/C=C/C[n+]3cccc(NC=O)c3)CSC12)c1nsc(N)n1 (stereo not drawn) [Compound I-1F, 7-[2-(5-Amino-1,2,4-thiadiazol-3-yl)-2-methoxyiminoacetamido]-3-[3-(3-formylaminopyridinio)-1-propen-1-yl]-3-cephem-4-carboxylate] | 0.033 (≈ 0.0606 µM) | 1.2 (≈ 2.2 µM) | 0.0094 (≈ 0.0173 µM) | 0.099 (≈ 0.182 µM) | 0.4 (≈ 0.735 µM) | 0.15 (≈ 0.275 µM) |  |
| CON=C(C(=O)NC1C(=O)N2C(C(=O)[O-])=C(/C=C/C[n+]3cccc(CN)c3)CSC12)c1nsc(N)n1 (stereo not drawn) [Compound I-1I, 7-[2-(5-Amino-1,2,4-thiadiazol-3-yl)-2-methoxyiminoacetamido]-3-[3-(3-aminomethylpyridinio)-1-propen-1-yl]-3-cephem-4-carboxylate] | 0.2 (≈ 0.377 µM) | 3.1 (≈ 5.84 µM) | 0.1 (≈ 0.188 µM) | 0.69 (≈ 1.3 µM) | 1.6 (≈ 3.02 µM) | 0.8 (≈ 1.51 µM) |  |
| CON=C(C(=O)NC1C(=O)N2C(C(=O)[O-])=C(/C=C/C[n+]3ccc(CO)cc3)CSC12)c1nsc(N)n1 (stereo not drawn) [Compound I-1L, 7-[2-(5-Amino-1,2,4-thiadiazol-3-yl)-2-methoxyiminoacetamido]-3-[3-(4-hydroxymethylpyridinio)-1-propen-1-yl]-3-cephem-4-carboxylate] | 0.088 (≈ 0.166 µM) | 2.6 (≈ 4.89 µM) | 0.029 (≈ 0.0546 µM) | 0.15 (≈ 0.282 µM) | 0.61 (≈ 1.15 µM) | 0.26 (≈ 0.489 µM) |  |
| CON=C(C(=O)NC1C(=O)N2C(C(=O)[O-])=C(/C=C/C[n+]3cccc(CC(=O)O)c3)CSC12)c1nsc(N)n1 (stereo not drawn) [Compound I-1P, 7-[2-(5-Amino-1,2,4-thiadiazol-3-yl)-2-methoxyiminoacetamido]-3-[3-(3-carboxymethylpyridinio)-1-propenyl]-3-cephem-4-carboxylate] | 0.087 (≈ 0.155 µM) | 14 (≈ 25 µM) | 0.013 (≈ 0.0232 µM) | 0.34 (≈ 0.608 µM) | 1.6 (≈ 2.86 µM) | 0.8 (≈ 1.43 µM) |  |
| CON=C(C(=O)NC1C(=O)N2C(C(=O)[O-])=C(/C=C/C[n+]3ccc(SCC(=O)O)cc3)CSC12)c1nsc(N)n1 (stereo not drawn) [Compound I-1Q, 7-[2-(5-Amino-1,2,4-thiadiazol-3-yl)-2-methoxyiminoacetamido]-3-[3-(4-carboxymethylthiopyridinio)-1-propenyl]-3-cephem-4-carboxylate] | 0.044 (≈ 0.0744 µM) | 14 (≈ 23.7 µM) | 0.0095 (≈ 0.0161 µM) | 0.23 (≈ 0.389 µM) | 0.92 (≈ 1.55 µM) | 0.7 (≈ 1.18 µM) |  |
| CCON=C(C(=O)NC1C(=O)N2C(C(=O)[O-])=C(/C=C/C[n+]3ccc(C(N)=O)cc3)CSC12)c1nsc(N)n1 (stereo not drawn) [Compound I-2H, 7-[2-(5-Amino-1,2,4-thiadiazol-3-yl)-2-ethoxyiminoacetamido]-3-[3-(4-carbamoylpyridinio)-1-propen-1-yl]-3-cephem-4-carboxylate] | 0.057 (≈ 0.102 µM) | 1.4 (≈ 2.51 µM) | 0.014 (≈ 0.0251 µM) | 0.15 (≈ 0.269 µM) | 0.4 (≈ 0.716 µM) |  | MIC [4]: 0.2 µg/mL (≈ 0.358 µM) |
| CON=C(C(=O)NC1C(=O)N2C(C(=O)[O-])=C(C=CC[N+]3(C)CCCC3)CSC12)c1nsc(N)n1 (stereo not drawn) [I-1A E/Z = 1/1, 7-[2-(5-Amino-1,2,4-thiadiazol-3-yl)-2-methoxyiminoacetamido]-3-[3-(1-methylpyrrolidinio)-1-propen-1-yl]-3-cephem-4-carboxylate] |  | 2.4 (≈ 4.73 µM) | 0.05 (≈ 0.0985 µM) | 0.23 (≈ 0.453 µM) | 0.7 (≈ 1.38 µM) | 0.26 (≈ 0.512 µM) | Geometric Mean of MIC, (G-)-Ib [2]: 0.15 µg/mL |
| CON=C(C(=O)NC1C(=O)N2C(C(=O)[O-])=C(C=CC[N+]3(C)CCCC3)CSC12)c1nsc(N)n1 (stereo not drawn) [I-1A E/Z = 7/1, 7-[2-(5-Amino-1,2,4-thiadiazol-3-yl)-2-methoxyiminoacetamido]-3-[3-(1-methylpyrrolidinio)-1-propenyl]-3-cephem-4-carboxylate sulfate] |  |  |  |  |  |  | Geometric Mean of MIC, (G-)-Ib ([2]; sulfate): 0.05 µg/mL; Geometric Mean of MIC, (G-)-III ([3]; sulfate): 1.4 µg/mL; Geometric Mean of MIC, (G+)-Ia ([4]; Mueller-Hinton agar, 5 strains, sulfate): 0.13 µg/mL; Geometric Mean of MIC, (G-)-Ia ([5]; sulfate): 0.029 µg/mL; Geometric Mean of MIC, (G-)-II ([6]; sulfate): 0.17 µg/mL; Geometric Mean of MIC, (G+)-Ib ([7]; sulfate): 0.35 µg/mL |
| CON=C(C(=O)NC1C(=O)N2C(C(=O)[O-])=C(/C=C/C[n+]3ccccc3)CSC12)c1nsc(N)n1 (stereo not drawn) [I-1B E, 7-[2-(5-Amino-1,2,4-thiadiazol-3-yl)-2-methoxyiminoacetamido]-3-[3-pyridinio-1-propen-1-yl]-3-cephem-4-carboxylate] | 0.044 (≈ 0.0877 µM) | 1.6 (≈ 3.19 µM) | 0.016 (≈ 0.0319 µM) | 0.11 (≈ 0.219 µM) | 0.4 (≈ 0.798 µM) |  | MIC [4]: 0.2 µg/mL (≈ 0.399 µM) |
| CON=C(C(=O)NC1C(=O)N2C(C(=O)[O-])=C(C=CC[N+](C)(C)C)CS[C@H]12)c1nsc(N)n1 (stereo partly drawn) [I-1D E/Z = 1/1, 7-[2-(5-Amino-1,2,4-thiadiazol-3-yl)-2-methoxyiminoacetamido]-3-(3-trimethylammonio-1-propen-1-yl)-3-cephem-4-carboxylate] |  | 2.4 (≈ 4.98 µM) | 0.1 (≈ 0.208 µM) | 0.46 (≈ 0.955 µM) |  |  | Geometric Mean of MIC, (G-)-Ib [2]: 0.26 µg/mL; Geometric Mean of MIC, (G+)-Ia ([4]; Mueller-Hinton agar, 5 strains): 0.61 µg/mL; Geometric Mean of MIC, (G+)-Ib [7]: 1.4 µg/mL |
| CON=C(C(=O)NC1C(=O)N2C(C(=O)[O-])=C(C=CC[N+](C)(C)C)CS[C@H]12)c1nsc(N)n1 (stereo partly drawn) [I-1D E/Z = 10/1, 7-[2-(5-Amino-1,2,4-thiadiazol-3-yl)-2-methoxyiminoacetamido]-3-[3-trimethylammonio-1-propenyl]-3-cephem-4-carboxylate] |  |  |  |  |  |  | Geometric Mean of MIC, (G-)-Ib [2]: 0.076 µg/mL; Geometric Mean of MIC, (G-)-III [3]: 1.3 µg/mL; Geometric Mean of MIC, (G+)-Ia ([4]; Mueller-Hinton agar, 5 strains): 0.30 µg/mL; Geometric Mean of MIC, (G-)-Ia [5]: 0.05 µg/mL; Geometric Mean of MIC, (G-)-II [6]: 0.26 µg/mL; Geometric Mean of MIC, (G+)-Ib [7]: 0.53 µg/mL |
| CCO/N=C(\C(=O)NC1C(=O)N2C(C(=O)[O-])=C(/C=C/C[n+]3ccc(C(=O)O)cc3)CSC12)c1nsc(N)n1 (stereo not drawn) [I-2N E, 7-[2-(5-Amino-1,2,4-thiadiazol-3-yl)-2-(Z)-ethoxyiminoacetamido]-3-[3-(4-carboxypyridinio)-1-propenyl]-3-cephem-4-carboxylate] | 0.11 (≈ 0.197 µM) | 4.7 (≈ 8.4 µM) | 0.016 (≈ 0.0286 µM) | 0.35 (≈ 0.625 µM) | 2.1 (≈ 3.75 µM) | 1.2 (≈ 2.14 µM) |  |
| CCO/N=C(\C(=O)NC1C(=O)N2C(C(=O)[O-])=C(/C=C\C[n+]3ccc(C(=O)O)cc3)CSC12)c1nsc(N)n1 (stereo not drawn) [I-2N Z, 7-[2-(5-Amino-1,2,4-thiadiazol-3-yl)-2-(Z)-ethoxyiminoacetamido]-3-[3-(4-carboxypyridinio)-1-propenyl]-3-cephem-4-carboxylate] | 0.15 (≈ 0.268 µM) | 10 (≈ 17.9 µM) | 0.044 (≈ 0.0786 µM) | 0.69 (≈ 1.23 µM) | 3.1 (≈ 5.54 µM) | 1.4 (≈ 2.5 µM) |  |

— US4751295A, “Cephalosporin derivatives” (Bristol-Myers Company, priority 1986, dated 1988)
